According to patent publication US10626438B2, “Fluorescent substrates for determining lysine modifying enzyme activity” (The Broad Institute, Inc., priority 2011, dated 2020):

Target: HDAC1 (Homo sapiens, UniProt Q13547)
Settings: for T(½): Broad Substrate A; for mechanism of inhibition (on/off kinetics): progress curves monitored for 4 hours and reversibility by 100-fold dilution

Sequence of HDAC1 (Q13547 whole entry): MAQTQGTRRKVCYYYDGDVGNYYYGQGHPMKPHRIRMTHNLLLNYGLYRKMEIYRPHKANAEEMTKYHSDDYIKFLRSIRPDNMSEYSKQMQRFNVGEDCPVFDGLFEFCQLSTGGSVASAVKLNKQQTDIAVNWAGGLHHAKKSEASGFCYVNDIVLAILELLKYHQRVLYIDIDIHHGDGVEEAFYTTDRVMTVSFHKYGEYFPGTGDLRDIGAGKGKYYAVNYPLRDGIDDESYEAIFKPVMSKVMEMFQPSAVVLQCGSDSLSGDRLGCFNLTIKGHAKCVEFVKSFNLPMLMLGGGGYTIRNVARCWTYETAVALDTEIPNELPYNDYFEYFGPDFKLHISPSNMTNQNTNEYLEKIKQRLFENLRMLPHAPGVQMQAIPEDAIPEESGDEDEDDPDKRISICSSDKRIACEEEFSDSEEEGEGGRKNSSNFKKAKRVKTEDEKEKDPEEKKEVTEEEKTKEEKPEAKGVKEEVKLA

Compound	T(½)	mechanism of inhibition (on/off kinetics)
CC(=O)Nc1ccc(C(=O)Nc2ccccc2N)cc1 [CI-994]	74 min	slow on/slow off inhibitor
O=C(CCCCCCC(=O)Nc1ccccc1)NO [SAHA]	<4 min	fast on/fast off inhibitor
